Consider 16 compounds from PubChem BioAssay (NCI).

Assay in all cases: NCI anticancer screen, dose series, 48 h
The subject of assay [1] is ACHN renal.
Assay [2] has as its system DU-145 prostate.
For assay [3], the system named is HCT-15 colon.
Assay [4] deals with HOP-92 NSCLC.
Assay [5] deals with HT29 colon.
Assay [6] concerns K-562 leukemia.
Assay [7] deals with MDA-MB-231 breast.
Assay [8] relates to MDA-MB-435.
Assay [9] concerns NCI-H23 lung.
Assay [10] has as its system NCI-H460 lung.
In assay [11] the test system is PC-3 prostate.
Assay [12] has as its system RXF 393 renal.
In assay [13] the test system is SK-MEL-2 melanoma.
Assay [14] concerns SN12C renal.
Assay [15] relates to SNB-19 CNS.
In assay [16] the test system is T-47D breast.
Assay [17] deals with U251 CNS.
Assay [18] has as its system UACC-62 melanoma.
For assay [19], the system named is NCI-H522 lung.
Assay [20] has as its system SR leukemia.

Molecules are shown by their SMILES.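 How tested: cells in 96-well plates exposed to compound for 48 hours at five concentrations. TGI: concentration producing complete growth inhibition.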

On to `Nc1nc(Nc2ccc(Cl)cc2)sc1C(=O)c1cc2ccccc2oc1=O`, for which the TGI in assay [1], in assay [2], in assay [3], in assay [4], in [5] and in assay [6] was above 100 µM each time. Moreover, the TGI in [7] is above 100 µM; in assay [8], above 100 µM; in assay [9] it was 89.5 µM; in assay [10], above 100 µM; in [11] it was above 100 µM; in [12] it was above 100 µM. The TGI is 75.8 µM in assay [13]; above 100 µM in [14]; above 100 µM in assay [15]; above 100 µM in assay [16]; above 100 µM in assay [17]; above 100 µM in assay [18].

Take `Cc1sc(N=Nc2c(O)[nH]c3ccccc23)nc1-c1ccccc1`: the TGI was found to be 31.1 µM in assay [1]; 24.8 µM in assay [2]; 27.9 µM in assay [3]; 45.2 µM in assay [4]; 54.5 µM in [5]; 33.3 µM in assay [7]. Besides, the TGI came out at 66.8 µM in [8]; 34.6 µM in assay [9]; 42.2 µM in assay [10]; 34.9 µM in assay [12]; 49.5 µM in assay [13]; 34.9 µM in assay [14]. Besides, the TGI is 37.3 µM in assay [15], 33.1 µM in assay [16], 34.3 µM in [17] and 34.3 µM in [18].

Regarding `CCNC1CC(C(C)(C)NCC)CC=C1C` (centres undefined), the TGI in assay [2], in [3], in assay [4], in [5], in assay [6] and in assay [7] was above 100 µM in each case. For the same compound, the TGI in assay [8], in assay [9], in assay [10], in assay [19], in assay [11] and in assay [14] was above 100 µM throughout. The TGI in [15], in assay [20], in assay [16], in assay [17] and in assay [18] was above 100 µM each time.

As to `CCCCCCCCCCCCCCCCCCNc1ccn(C2OC(CO)C(OP(=O)(O)OCC3CCC(n4ccc(N)nc4=O)O3)C2O)c(=O)n1` (centres undefined), the TGI in assay [1], in [2], in assay [3], in assay [4], in assay [5] and in assay [7] was above 100 µM in each case. Besides, the TGI in assay [8] is above 100 µM; in assay [9] it was above 100 µM; in [10] it was above 100 µM; in assay [19], above 100 µM; in assay [11] it was 40.6 µM; in assay [12], 45.1 µM. Besides, the TGI in assay [13], in [14], in [15], in assay [16], in assay [17] and in [18] was above 100 µM throughout.

For `COC(=O)[C@]1(c2cc3ccccc3[nH]2)CC2CN(CC(=O)N(C)OC)C1C1OC(C)(C)OC21` (some centres undefined), the TGI in assay [1], in [2], in assay [3], in assay [4], in [5] and in [6] was above 100 µM in each case. For the same compound, the TGI in [7], in assay [8], in assay [9], in [10], in [19] and in assay [11] was above 100 µM throughout. Besides, the TGI in [12], in assay [13], in [14], in [15], in assay [16] and in assay [17] was above 100 µM each time. In assay [18], the TGI is above 100 µM.

Consider `CC(=O)Oc1ccc(-c2cc3ccccc3oc2=O)cc1OC(C)=O`, for which the TGI in assay [1], in assay [2], in [3], in assay [5], in assay [6] and in assay [7] was above 100 µM each time. The TGI in [8], in assay [9], in assay [10], in assay [19], in assay [11] and in [13] was above 100 µM each time. Also, the TGI in [14], in assay [15], in assay [20], in [16] and in assay [17] was above 100 µM in each case.

With `CN1N=C(c2ccncc2)OC1c1ccc(Cl)c(Cl)c1` (centres undefined), the TGI in assay [1], in [2], in [3], in [4], in assay [5] and in assay [6] was above 100 µM in each case. The TGI in [7], in assay [8], in assay [9], in assay [10], in assay [19] and in assay [11] was above 100 µM each time. For the same compound, the TGI in assay [12], in [13], in assay [14], in assay [15], in assay [16] and in [17] was above 100 µM throughout. The TGI in assay [18] is above 100 µM.

Take `CC(=O)OCCn1c(Cc2ccc([N+](=O)[O-])cc2)nn(C(C)=O)c1=O`: the TGI in assay [1], in [2], in assay [3], in [4], in [5] and in assay [6] was above 100 µM throughout. Further, the TGI in assay [7], in assay [8], in assay [9], in assay [10], in [19] and in assay [11] was above 100 µM in each case. In addition, the TGI in assay [13], in assay [14], in [15], in assay [20], in assay [16] and in assay [17] was above 100 µM in each case. In addition, the TGI in assay [18] was above 100 µM.

For the compound `OCCOCCO[P+]1(OCCOCCO)n2c3ccc2C(c2ccccc2)=C2C=CC(=N2)C(c2ccccc2)=c2ccc(n21)=C(c1ccccc1)C1=NC(=C3c2ccccc2)C=C1`, the TGI in assay [1] was 1.05 µM; in assay [2], 1.72 µM; in [3], 3.21 µM; in assay [4], above 100 µM; in assay [5], 0.358 µM; in assay [7], 0.247 µM. For the same compound, the TGI was 0.629 µM in assay [9]; 0.886 µM in [10]; 0.448 µM in [19]; 1.2 µM in assay [11]; 2.04 µM in assay [16]; above 100 µM in assay [17]. The compound further came in with a TGI in assay [18] of 0.633 µM.

In the case of `COc1cc2c[n+](C)c3c4ccccc4ccc3c2cc1OC`, the TGI in [1] was above 100 µM; in [2] it was 14 µM; in [3], above 100 µM; in assay [5] it was above 47.6 µM; in [6], 21.2 µM; in [7] it was 14.8 µM. Further, the TGI in assay [8] is 15.6 µM; in assay [9], 14.1 µM; in [10], above 51.2 µM; in assay [19], 5.57 µM; in assay [11], above 43.2 µM; in assay [12], 32.1 µM. In addition, the TGI in [13] was 34.2 µM; in assay [14], 7.95 µM; in [15], 33.6 µM; in assay [16], 9.22 µM; in assay [17], 10.3 µM; in [18], 18 µM.

For `Nc1ncnc2c1ncn2CC(OCP(=O)(O)O)Oc1ccccc1` (centres undefined), the TGI in assay [1], in assay [2], in assay [3], in assay [4], in [6] and in [7] was above 100 µM throughout. In addition, the TGI in assay [8], in assay [11], in assay [12], in assay [13], in assay [14] and in assay [15] was above 100 µM throughout. The TGI in assay [16], in assay [17] and in [18] was above 100 µM in each case.

Turning to `COc1cc2c(cc1OC)-c1cc3ccccc3c(=O)n1CCC2`, the TGI in assay [1] was above 100 µM; in assay [2], above 66 µM; in [3], 27.5 µM; in [4], 68.3 µM; in [5] it was 41.2 µM; in assay [6] it was above 81.9 µM. For the same compound, the TGI in [7] was 57.2 µM; in assay [8] it was above 53.7 µM; in assay [9], 65.1 µM; in [10], 11.2 µM; in assay [19], 74.9 µM; in assay [11], 62.7 µM. Further, the TGI is 57.5 µM in assay [12]; 86.6 µM in [13]; 78.9 µM in assay [14]; above 100 µM in assay [15]; 68.9 µM in [16]; above 65.7 µM in assay [17]. In [18], this compound gave a TGI of 36.5 µM.

As for `COc1cccc(/C=N/n2c(-c3ccccc3)n[nH]c2=O)c1`, the TGI in assay [1], in assay [2], in [3], in assay [5], in [6] and in [7] was above 100 µM in each case. Also, the TGI was above 100 µM in assay [8]; 90.5 µM in [9]; above 100 µM in [10]; above 100 µM in assay [11]; above 100 µM in assay [13]; above 100 µM in [14]. In addition, the TGI in assay [15], in assay [16], in assay [17] and in assay [18] was above 100 µM in each case.

For `COc1cc(/C=C2\NC(=O)N(/C=C3\C(=O)Oc4ccccc4C3=O)C2=O)ccc1O`, the TGI in [1], in assay [2], in [3], in assay [4], in assay [5] and in assay [6] was above 100 µM in each case. For the same compound, the TGI in assay [7], in assay [8], in assay [9], in [10], in assay [19] and in assay [11] was above 100 µM each time. In addition, the TGI in assay [12] is 99.2 µM; in [13] it was above 100 µM; in [14], above 100 µM; in assay [15] it was above 100 µM; in [16], above 100 µM; in assay [17], above 100 µM. In assay [18], this compound registered a TGI above 100 µM.

On to `CC[n+]1[b-](C(C)(C)C)n(/N=C(\C)C(C)(C)C)[b-](C(C)(C)C)[n+]1CC`, for which the TGI in assay [1], in [3], in assay [5], in [6], in [7] and in [8] was above 100 µM throughout. In addition, the TGI in assay [9], in assay [10], in [19], in assay [11], in assay [12] and in assay [13] was above 100 µM each time. Besides, the TGI was above 100 µM in [14]; above 100 µM in [15]; 56.8 µM in assay [20]; above 100 µM in assay [16]; above 100 µM in [17]; above 100 µM in assay [18].

With `Cc1cc(S(=O)(=O)Nc2nc(N)n(C)n2)c(S)cc1Cl`, the TGI in assay [1], in [2], in assay [3], in assay [5], in assay [6] and in assay [7] was above 10 µM in each case. Further, the TGI in assay [8], in assay [9], in [10], in assay [19], in [11] and in [12] was above 10 µM in each case. In addition, the TGI in assay [13], in [14], in assay [15], in assay [16], in assay [17] and in assay [18] was above 10 µM each time.
